Ends that are not written are not given here.
How the values were obtained:
Wild type mice [1] = experiment: Osteocalcin subcutaneous infusion in wt mice: glucose tolerance after glucose injection; type: in vivo, mouse; conditions: 0.3 or 3 ng/hour s.c. for 14 days, then single glucose injection, 120 minute period, vs PBS
Description: FIG. 11. […] Wt mice were infused subcutaneously with indicated doses of recombinant osteocalcin or PBS for 14 days before receiving a single injection of glucose. Blood glucose was measured thereafter at indicated times.
(§1) For glucose tolerance test (GTT), glucose (2 g/kg body weight (BW)) was injected intraperitoneally (IP) after an overnight fast and blood glucose was monitored using blood glucose strips and the Accu-Check glucometer (Roche) at indicated times. For glucose stimulated insulin secretion test (GSIS), glucose (3 g/kg BW) was injected IP after an overnight fast; sera were collected from tails and insulin measured as described (Mauvais-Jarvis et al., 2000). For insulin tolerance test (ITT), mice were fasted for six hours, injected IP with insulin (0.2 U/kg BW) and blood glucose levels were measured at indicated times as described (Mauvais-Jarvis et al., 2002). ITT data are presented as percentage of initial blood glucose concentration. […] Streptozotocin ([…] single injection, Sigma) was injected IP and blood glucose measured as described above every 2 days thereafter. […] Food intake was measured using metabolic cages as the daily change of food weight. Energy expenditure was measured using metabolic cages connected to a calorimeter (Columbus Instrument). Heat values (Kcal/Hr) were recorded over 2 days and reported to each mouse BW. […]

Wild type mice [2] = experiment: Osteocalcin subcutaneous infusion in wt mice: insulin sensitivity after insulin injection; type: in vivo, mouse; conditions: 0.3 or 3 ng/hour s.c. for 18 days, then single insulin injection, 0-120 minutes, vs PBS
Description: FIG. 12. […] Wt mice were infused subcutaneously with indicated doses of recombinant osteocalcin or PBS for 18 days before receiving a single injection of insulin. Blood glucose was measured thereafter at indicated times.
as §1

Wild type adipocytes = experiment: Adiponectin expression in wt adipocytes treated with osteocalcin (real time PCR); type: cell-based, mouse; conditions: wild type adipocytes treated for 4 hours; real time PCR; vs vehicle
Description: (§2) FIG. 7. Esp−/− Mice Are a Model of Increased Osteocalcin Bioactivity. (A-G) Comparison between 6-week-old WT, Esp−/, Ocn+/−, and Esp−/−; Ocn+/− mice. (A) Blood glucose levels. (B) Serum insulin levels. (C) Serum adiponectin levels. (D) GTT. (E) ITT. (F) GSIS test. (G) Quantification of the number of Ki67-immunoreactive cells in pancreatic islets. […] (J) Expression of Adiponectin in WT adipocytes cocultured with osteoblasts treated with warfarin or vehicle. (K) Expression of Adiponectin in WT adipocytes cultured in presence of vehicle or of 1 ng/ml of commercially available carboxylated osteocalcin (Immunotopics) or bacterially produced uncarboxylated osteocalcin. (L) Expression of Insulin and Cyclin D1 in WT islets cultured in presence of 0.3 ng/ml of bacterially produced uncarboxylated osteocalcin or vehicle. (M) Metabolic parameters and total serum osteocalcin levels in control and obese patients. (N-O) Quantification of carboxylated osteocalcin (HA-bound osteocalcin) in control and obese patients. In (A)-(C) and (G)-(L): *p<0.05 versus WT (Student's t test); in (D)-(F), °p<0.05 versus WT and *p % 0.001 versus WT (ANOVA followed by post hoc analysis).
FIG. 15. […] Wt adipocytes were treated for 4 hours with recombinant full-length osteocalcin (1-46) or a truncated form (1-36) or vehicle. Adiponectin expression was then quantified by real time PCR.
Primary adipocytes were isolated from epididymal fat pads by collagenase digestion. Briefly, minced adipose tissue was digested by 1 mg/ml collagenase P in KRP Buffer (20 mM HEPES, 120 mM NaCl, 6 mM KCl, 1.2 mM MgSO4, 1 mM CaCl2, 0.6 mM Na2HPO4, 0.4 mM NaH2PO4, 2.5 mM D-glucose, 2% BSA, pH 7.4) for 1 h at 37° C. The isolated cells were washed twice with KRP Buffer before being cultured in αMEM/1% FBS at 37° C. in 5% CO2.
All gene expression analyses were performed using real time PCR. DNAse I-treated total RNA was converted to cDNA with the SuperScript III kit (Invitrogen). Real-time PCR were performed using the Taq SYBR Green Supermix with ROX (Biorad) on an MX3000 instrument (Stratagene); beta-actin amplification was used as an internal reference for each sample. All primers were from SuperArray.
Experiments were performed to test whether truncated osteocalcin was as effective as full-length uncarboxylated osteocalcin in stimulating adiponectin secretion from mouse adipocytes in vitro. Wild type adipocytes were treated for 4 hours with recombinant full-length osteocalcin (1-46) or a truncated form (1-36) (having a deletion of the […] ten amino acids from the C-terminal end) or vehicle. Adiponectin expression was then quantified by real time PCR. […]

WT islets = experiment: Insulin and Cyclin D1 expression in WT islets cultured with uncarboxylated osteocalcin; type: cell-based, mouse; conditions: 0.3 ng/ml (FIG. 7L)
Description: as §2
Islets were isolated using a Histopaque gradient (1077, Sigma). In brief, after clamping the common bile duct at its entrance to the duodenum, 1 mg/ml collagenase P (Sigma) in M199 medium (GIBCO) was injected into the duct. […]

[3] = listed as recombinant osteocalcin

uncarboxylated osteocalcin: Recombinant mouse osteocalcin bacterially produced, cleaved from GST with thrombin; completely undercarboxylated at all three sites (YLGASVPSPDPLEPTREQCELNPACDELSDQYGLKTAYKRIYGITI; not fully specified; ends and bridges not checked; UniProt P86546 50-95, looked up)
glucose tolerance (Wild type mice [1]): increased glucose tolerance
glucose tolerance (Wild type mice [1]; [3]): increases glucose tolerance
insulin sensitivity (Wild type mice [2]): increased
insulin sensitivity (Wild type mice [2]; [3]): increases insulin sensitivity
Adiponectin expression increase (Wild type adipocytes): ~1.5 fold
expression of Cyclin D1, marker of beta-cell proliferation (WT islets): induced
insulin expression (WT islets): induced

Reference: patent US9518976B2, “Methods for identifying or assaying for agents that increase beta-cell proliferation, insulin secretion, insulin sensitivity, glucose tolerance and decrease fat mass” (The Trustees of Columbia University in The City of New York, priority 2006, dated 2016)
